Reference: publication PMC9693971, “Fast Screening of Protein Tyrosine Phosphatase 1B Inhibitor from Salvia miltiorrhiza Bge by Cell Display-Based Ligand Fishing” (Molecules, 2022)

Columns and labels:
[1] = target: T1, Protein tyrosine phosphatase 1B (PTP1B) (Homo sapiens, UniProt P18031); assay: ligand fishing with E. coli surface-displayed PTP1B, HPLC readout, with control cells; not fished by MNPs-PTP1B; assay type: cell-based
T1 construct: gene PTPN1
T1 sequence (P18031 1-435): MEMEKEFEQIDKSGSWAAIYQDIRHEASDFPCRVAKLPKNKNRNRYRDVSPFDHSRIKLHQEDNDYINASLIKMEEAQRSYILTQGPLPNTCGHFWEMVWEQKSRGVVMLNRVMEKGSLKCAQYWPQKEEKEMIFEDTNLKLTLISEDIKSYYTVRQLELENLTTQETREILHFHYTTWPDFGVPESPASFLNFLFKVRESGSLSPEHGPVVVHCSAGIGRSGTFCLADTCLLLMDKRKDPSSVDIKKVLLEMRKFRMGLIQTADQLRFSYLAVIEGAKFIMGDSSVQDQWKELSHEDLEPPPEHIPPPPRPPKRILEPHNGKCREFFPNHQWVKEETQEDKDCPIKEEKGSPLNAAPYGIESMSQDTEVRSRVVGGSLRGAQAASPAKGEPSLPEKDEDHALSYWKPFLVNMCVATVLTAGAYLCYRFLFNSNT

[2] = target: T1, Protein tyrosine phosphatase 1B (PTP1B); assay: pNPP phosphatase inhibition assay with Lineweaver-Burk kinetics (Ki […], Kis […]); also fished out by PTP1B displayed on E. coli; assay type: biochemical

| Structure (SMILES) | ligand fishing with E. coli surface-displayed PTP1B, HPLC readout, with control [1] | IC50 [2] [µM] |
| --- | --- | --- |
| C[C@@H]1O[C@@H](OC[C@H]2O[C@@H](Oc3c(-c4ccc(O)c(O)c4)oc4cc(O)cc(O)c4c3=O)[C@H](O)[C@@H](O)[C@@H]2O)[C@H](O)[C@H](O)[C@H]1O [II, rutin] | only EC-PTP1B extracted the positive compound rutin, indicating that EC-PTP1B was efficient for fishing the enzyme ligand | – |
| O=C(/C=C/c1ccc(O)c2c1[C@H](C(=O)O[C@H](Cc1ccc(O)c(O)c1)C(=O)O)[C@@H](c1ccc(O)c(O)c1)O2)O[C@H](Cc1ccc(O)c(O)c1)C(=O)O [salvianolic acid B] | – | 23.3 |
